Values quoted from earlier work in patent US20070093966A1, “Drug candidate selection by hydrogen exchange characterization of ligand-induced receptor conformation” (ExSAR CORPORATION, priority 2004, published 2007).

Test system: endogenous gene CAP in 3T3-L1 adipocytes
Conditions: Camp et al.

SMILES: Cc1c(C)c2c(c(C)c1O)CCC(C)(COc1ccc(CC3SC(=O)NC3=O)cc1)O2 (stereo not shown) [troglitazone]
- agonist profile, induction of the endogenous gene CAP: full agonist
